Like-named read-outs stand apart in the source and are kept apart here. Peptide text beside a SMILES is read from it. * marks the point of attachment. Cbz = O=C(OCc1ccccc1)*
Tests used:
[1] = tested on: R77C-α-SGmCh; test: SG localization cell-based assay: membrane rescue of R77C-α-SGmCh in immortalized LGMD-R3 patient fibroblasts; parameters: species or system human; conditions: for effect on R77C-α-SGmCh mutant protein rescue in combination with givinostat: low doses: carfilzomib 10 nM, MG132 100 nM, increasing concentrations of givinostat; for EC50: read-out: EC50, presence of R77C-α-SGmCh at the membrane
Method: Cells were analyzed after 24 hours of treatment.
In order to easily evaluate the membrane localization of the R77C-α-SG mutant in the heterologous condition, a system was generated that allowed the simultaneous identification of the positive cells for the exogenous protein and the quantification of the amount of protein in the cell membrane. A fusion protein was created, consisting of the coding sequence for human R77C-α-SGfused with an mCherry (mCh) fluorescent reporter at the C-terminus. A flexible linker was inserted between the two coding sequences to avoid protein interference in protein maturation and folding. The construct, hereafter termed R77C-α-SGmCh, was placed under the transcriptional control of the cytomegalovirus (CMV) promoter and inserted into a lentivirus backbone. Immortalized fibroblasts from a LGMD-R3 patient were used as cellular model because of their absence of endogenous α-SG.

[2] = biological target: T1, chymotrypsin-like activity of the proteasome (Homo sapiens, UniProt P28074); test: Proteasomal activity assay (Proteasome-Glo chymotrypsin-like cell-based assay); conditions: for chymotrypsin-like activity of the proteasome: increasing concentrations
T1 construct: endogenous in cells; host or cells: immortalized patient fibroblasts overexpressing R77C-α-SGmCh
Method: Fibroblasts were seeded in 384 well plates and treated with tested combinations as indicated for 12 hours. Proteasome-Glo™ or chymotrypsin-like cell-based assay reagents were added according to manufacturer instructions (Promega). Luminescence was read using a CLARIOstar® microplate reader (BMG Labtech).

[3] = tested on: ubiquitinated proteins, P62, LC3BI/II, acetylated α-tubulin, α-SG; test: Immunoblotting of fibroblasts overexpressing R77C-α-SGmCh; type: cell-based, human; conditions: 24 hours; for ubiquitinated proteins (Western blot): 10 μM in combination with 5 nM BTZ
Method: (B) Western Blot analysis of ubiquitinated proteins (top panel), P62 and LC3BI/II (middle panel) and acetylated α-tubulin (bottom panel) expression in fibroblasts overexpressing R77C-α-SGmCh and treated with DMSO 0.1%, BTZ (5 nM or 30 nM), or givinostat (10 μM) in presence or in absence of 5 nM BTZ for 24 hours.
(D) Western Blot analysis of ubiquitinated proteins (middle panel), α-SG (top panel) and acetylated α-tubulin (bottom panel) expression in fibroblasts overexpressing R77C-α-SGmCh and treated with DMSO 0.1%, BTZ (5 nM or 30 nM), or tubacin (10 μM) in presence or in absence of 5 nM BTZ for 24 hours.
Twenty-four hours after seeding, the immortalized fibroblasts expressing R77C-α-SGmCh were incubated with the tested compounds or the carrier. Cells were collected after 24 hours of treatment. Proteins were extracted by cell lysis buffer (NP40 Buffer, Thermo Scientific) and Proteases Inhibitors (Complete PIC, Roche). Proteins were separated using a 3-8% Criterion™ XT tris-acetate protein gel and then transferred to PVDF membrane with a Trans-Blot Turbo Transfert system (Biorad) using the 7 min/25V program. Detection of proteins was performed using standard Odyssey protocol by incubation with the following antibodies: • Ubiquitinated proteins: Merck, 04-263; • acetylated α-tubulin: Sigma, T6793; • P62: Abcam, ab56416; • LC3BI/II: Novus, NB600-1384.

[4] = tested on: fibroblasts overexpressing R77C-α-SGmCh; test: Viability test: count of Hoechst stained cells per field; conditions: increasing concentrations alone or in combination with 5 nM BTZ
Method: For overexpression of mutated α-SG and γ-SG, immortalized fibroblasts were transduced with a lentiviral vector expressing human R77C-α-SGmCh, C283Y-γ-SGmCh or E263K-γ-SGmCh with a multiplicity of infection (MOI) of 20 in the presence of 4 μg/ml of polybrene (Sigma-Aldrich). Cells were seeded on plates coated with 50 μg/ml of collagen I and maintained in a humidified atmosphere of 5% CO2 at 37-C. […] Cells were analyzed after 24 hours of treatment.
After 24 hours of drug treatment, cells were fixed in 4% paraformaldehyde (10 min, room temperature). Immunocytochemistry was performed in a phosphate-buffered saline (PBS) solution supplemented with 1% bovine serum albumin (BSA; Sigma) for blocking (1 hour, room temperature) and with a mouse anti-α-SG (NCL-L-a-SARC, Novocastra, Leica) or anti-γ-SG (NCL-L-g-SARC, Novocastra, Leica) for primary hybridization step (overnight, 4° C.). Cells were stained with a fluorophore-conjugated secondary anti-mouse antibody (Invitrogen; 1 hour, room temperature) and nuclei were visualized with Hoechst 33342 (Invitrogen). SG localization was analyzed with a CellInsight CX7 HCS Platform (Cellomics Inc). […] Pictures were acquired with a 10× objective in high-resolution camera mode and were analyzed using the colocalization bioapplication. The number of cells was monitored by counting Hoechst stained cells per field allowing quantification of the cell viability.

[5] = 10 μM with addition of 5 nM BTZ
[6] = combined treatment with 5 nM BTZ

**Q.** How did the “effect on R77C-α-SGmCh mutant protein rescue in combination with givinostat” value [1] turn out when CC(C)C[C@@H](C=O)NC(=O)[C@H](CC(C)C)NC(=O)[C@H](CC(C)C)NC(=O)OCc1ccccc1 [MG132] (Cbz-Leu-Leu-Leu-aldehyde) was run?
**A.** synergistic effect

**Q.** With O=C(/C=C/c1cccc(S(=O)(=O)Nc2ccccc2)c1)NO [belinostat] as the compound, how does the “R77C-α-SGmCh membrane rescue (α-SG staining)” value (“R77C-α-SGmCh membrane rescue” below) ([1]; 10 μM alone) read?
**A.** low effect

**Q.** And the “R77C-α-SGmCh membrane rescue” value [1, 5]?
**A.** diffuse α-SG staining suggesting a synergy with BTZ

**Q.** What about the EC50 [1, 6] of the same compound?
**A.** 0.3 µM

**Q.** And the EC50 ([1]; treatment alone)?
**A.** 5.3 µM

**Q.** What about the “chymotrypsin-like activity of the proteasome” value [2] of the same compound?
**A.** no proteasomal inhibition

**Q.** Which results are given for CC(C)C[C@H](NC(=O)[C@H](Cc1ccccc1)NC(=O)c1cnccn1)B(O)O [bortezomib]?
**A.** R77C-α-SG degradation rescue ([1]; 5 nM BTZ): rescuing partially; R77C-α-SG localization in the plasma membrane ([1]; 30 nM, 24 hours, non-permeabilized condition): rescue of R77C-α-SG localization in the plasma membrane; inhibition of the proteasome activity ([2]; 5 nM BTZ): limited inhibition

**Q.** For CC(C)C[C@H](NC(=O)[C@H](CCc1ccccc1)NC(=O)CN1CCOCC1)C(=O)N[C@@H](Cc1ccccc1)C(=O)N[C@@H](CC(C)C)C(=O)[C@@]1(C)CO1 [carfilzomib], which “effect on R77C-α-SGmCh mutant protein rescue in combination with givinostat” value [1] is on record?
**A.** synergistic effect

**Q.** With CCN(CC)Cc1ccc2cc(COC(=O)Nc3ccc(C(=O)NO)cc3)ccc2c1 [givinostat, Givinostat] as the compound, how does the “R77C-α-SGmCh membrane rescue” value ([1]; 10 μM alone) read?
**A.** low effect

**Q.** What about the “R77C-α-SGmCh membrane rescue” value [1, 5] of the same compound?
**A.** diffuse α-SG staining suggesting a synergy with BTZ

**Q.** What about the EC50 [1, 6] of the same compound?
**A.** 0.8 µM

**Q.** What about the EC50 ([1]; treatment alone) of the same compound?
**A.** 3 µM

**Q.** And the “chymotrypsin-like activity of the proteasome” value [2]?
**A.** no proteasomal inhibition

**Q.** And the “acetylation of α-tubulin (Western blot)” value ([3]; 10 μM alone or in combination with 5 nM BTZ)?
**A.** induces the acetylation of α-tubulin

**Q.** And the “LC3B-I to LC3B-II conversion and P62 (Western blot)” value ([3]; 10 μM combined with 5 nM BTZ)?
**A.** increasing conversion of LC3B-I to LC3B-II with P62 accumulation

**Q.** What about the “ubiquitinated proteins (Western blot)” value [3] of the same compound?
**A.** synergistic accumulation of ubiquitinated proteins

**Q.** With O=C(CCCCCCC(=O)Nc1ccc([C@H]2O[C@@H](CSc3nc(-c4ccccc4)c(-c4ccccc4)o3)C[C@@H](c3ccc(CO)cc3)O2)cc1)NO [tubacin, Tubacin] as the compound, how does the “membrane R77C-α-SGmCh expression” value ([1]; in combination with 5 nM BTZ) read?
**A.** synergistic effect

**Q.** What about the “membrane R77C-α-SGmCh expression” value ([1]; increasing concentrations, alone) of the same compound?
**A.** induced a dose-response curve

**Q.** What about the cell toxicity [4] of the same compound?
**A.** in the same range than givinostat

**Q.** And the “acetylation of α-tubulin (Western blot)” value ([3]; 10 μM combined with 5 nM BTZ)?
**A.** acetylation of a-tubulin

**Q.** What about the “α-SG protein levels (Western blot)” value ([3]; 10 μM combined with 5 nM BTZ) of the same compound?
**A.** increased α-SG protein levels

**Q.** What about the “ubiquitinated proteins (Western blot)” value [3] of the same compound?
**A.** synergistic accumulation of ubiquitinated proteins
